These are literature values, as cited in patent US20190114390A1, “DRUG REPURPOSING BASED ON DEEP EMBEDDINGS OF GENE EXPRESSION PROFILES” (BioAge Labs, Inc., priority 2017, published 2019).

Structures are written as SMILES.

Data set [1] has as its system imidazole I-2 receptors. Particulars: known property.
For data set [2] the following is noted: known property.

As for `CN(C)C(=N)N=C(N)N` [Metformin, metformin], the “effect upon imidazole I-2 receptors” value in data set [1] is “direct inhibitory effect upon imidazole I-2 receptors”. Moreover, the “effect on glucose levels” value in data set [2] is reported as “lower glucose levels”.
On to `NC(=O)NC1NC(=O)NC1=O` (stereo not shown) [allantoin], for which the “effect upon imidazole I-2 receptors” value in data set [1] was “direct inhibitory effect upon imidazole I-2 receptors”. Moreover, in data set [2], the “effect on glucose levels” value is on record as “lowers glucose levels”.
